Assay results reported in patent US8822471B2, “Compounds, pharmaceutical compositions and uses thereof” (Boehringer Ingelheim International GmbH, priority 2011, dated 2014).

Target: T1, human GPR119 (Homo sapiens, UniProt Q8TDV5)
T1 construct: expression vector for human GPR119 cDNA (Acc. No. NP_848566); expressed in transfected cells
T1 sequence (Q8TDV5 1-335): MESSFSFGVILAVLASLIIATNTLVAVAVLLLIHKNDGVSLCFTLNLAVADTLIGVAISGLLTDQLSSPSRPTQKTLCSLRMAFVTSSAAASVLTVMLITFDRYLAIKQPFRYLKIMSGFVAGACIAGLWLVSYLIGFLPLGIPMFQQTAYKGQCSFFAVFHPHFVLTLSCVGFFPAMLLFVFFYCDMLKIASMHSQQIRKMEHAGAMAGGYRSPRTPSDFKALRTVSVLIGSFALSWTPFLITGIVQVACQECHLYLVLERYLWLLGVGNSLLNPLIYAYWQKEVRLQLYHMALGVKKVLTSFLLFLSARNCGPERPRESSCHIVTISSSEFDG
Test: AlphaScreen cAMP assay in MIN6 cells stably transfected with human GPR119
Type: cell-based
Conditions: Min-6/hGPR119 cells, AlphaScreen cAMP Assay Kit, 45 minutes incubation at room temperature
Experimental: The compounds of formula I according to the invention modulate the activity of the G-protein-coupled receptor GPR119. The effect of the compounds on the activation of GPR119 and on the stimulation of intracellular cAMP concentration is determined using the AlphaScreen cAMP Assay Kit (Cat. No. #6760625R) made by PerkinElmer.
MIN6 cells [Miyazaki J et al. Endocrinology. 1990 July; 127(1):126-32] are stably transfected with an expression vector for human GPR119 cDNA (Acc. No. NP_848566). Min-6/hGPR119 cells are cultured in DMEM, 10% FBS, 50 μM β-mercaptoethanol, 0.3 mg/mL Geniticin, 2 mM GlutaMAX at 37° C. 5% CO2. For the assay, the cells are seeded in Optiplates (white, 384-well, 160 W-barcoded, TC, sterile with lid, Cat. No. #6007688 (Perkin Elmer); 10000 cells/well; 50 μl). The plates covered with lids are then incubated for 24 hours at 37° C./5% CO2. After the medium is aspirated from the wells completely, 10 μl of the test compound are added, the compounds are diluted using stimulating buffer (140 mM NaCl, 3.6 mM KCl, 0.5 mM NaH2PO4, 0.5 mM MgSO4, 1.5 mM CaCl2, 10 mM Hepes, 5 mM NaHCO3; pH 7.4. 0.5 mM IBMX and 0.1% BSA, the final DMSO concentration is 1%). After 45 minutes incubation at room temperature (approx. 20° C.), the cAMP concentrations are determined using the AlphaScreen cAMP Assay Kit (Cat. No. #6760625R from PerkinElmer).

SMILES	EC50 [nM]
O=C(c1ccc(-c2cnco2)cc1)N(C1CC1)C1CCN(c2ccc(Br)cn2)CC1 [Example 32, N-[1-(5-Bromo-pyridin-2-yl)-piperidin-4-yl]-N-cyclopropyl-4-oxazol-5-yl-benzamide]	38
O=C(c1ccc(-c2cnco2)cc1)N(C1CC1)C1CCN(c2ccc(F)cn2)CC1 [Example 33, N-Cyclopropyl-N-[1-(5-fluoro-pyridin-2-yl)-piperidin-4-yl]-4-oxazol-5-yl-benzamide]	276
O=C(c1ccc(-c2cnco2)cc1)N(C1CC1)C1CCN(c2nc(Cl)ns2)CC1 [Example 35, N-[1-(3-Chloro-[1,2,4]thiadiazol-5-yl)-piperidin-4-yl]-N-cyclopropyl-4-oxazol-5-yl-benzamide]	53
CC(C)Nc1nsc(N2CCC(N(C(=O)c3ccc(-c4cnco4)cc3)C3CC3)CC2)n1 [Example 36, N-Cyclopropyl-N-[1-(3-isopropylamino-[1,2,4]thiadiazol-5-yl)-piperidin-4-yl]-4-oxazol-5-yl-benzamide]	83
CC(C)Oc1nsc(N2CCC(N(C(=O)c3ccc(-c4cnco4)cc3)C3CC3)CC2)n1 [Example 37, N-Cyclopropyl-N-[1-(3-isopropoxy-[1,2,4]thiadiazol-5-yl)-piperidin-4-yl]-4-oxazol-5-yl-benzamide]	55
NC(=O)c1ccc(-c2ccc(C(=O)N(C3CC3)C3CCN(c4nc(-c5ccccc5)no4)CC3)cc2)cc1 [Example 39, Biphenyl-4,4′-dicarboxylic acid 4′-amide 4-{cyclopropyl-[1-(3-phenyl-[1,2,4]oxadiazol-5-yl)-Piperidin-4-yl]-amide}]	87
O=C(c1ccc(-c2cnco2)cc1)N(C1CC1)C1CCN(c2nc(-c3ccc(Br)cc3)no2)CC1 [Example 40, N-{1-[3-(4-Bromo-phenyl)-[1,2,4]oxadiazol-5-yl]-piperidin-4-yl}-N-cyclopropyl-4-oxazol-5-yl-benzamide]	11
Cc1ncoc1-c1ccc(C(=O)N(C2CC2)C2CCN(c3nc(-c4ccccc4)no3)CC2)cc1 [Example 41, N-Cyclopropyl-4-(4-methyl-oxazol-5-yl)-N-[1-(3-phenyl-[1,2,4]oxadiazol-5-yl)-piperidin-4-yl]-benzamide]	38
Cc1ncoc1-c1ccc(C(=O)N(C2CC2)C2CCN(c3nc(C(C)C)no3)CC2)cc1 [Example 42, N-Cyclopropyl-N-[1-(3-isopropyl-[1,2,4]oxadiazol-5-yl)-piperidin-4-yl]-4-(4-methyl-oxazol-5-yl)-benzamide]	17
Cc1ncoc1-c1ccc(C(=O)N(C2CC2)C2CCN(c3ncc(Cl)cn3)CC2)cc1 [Example 43, N-[1-(5-Chloro-pyrimidin-2-yl)-piperidin-4-yl]-N-cyclopropyl-4-(4-methyl-oxazol-5-yl)-benzamide]	46
CCOC(=O)c1noc(N2CCC(N(C(=O)c3ccc(-c4cnco4)cc3)C3CC3)CC2)n1 [Example 45, 5-{4-[Cyclopropyl-(4-oxazol-5-yl-benzoyl)-amino]-piperidin-1-yl}-[1,2,4]oxadiazole-3-carboxylic acid ethyl ester]	259
CC(C)(O)c1noc(N2CCC(N(C(=O)c3ccc(-c4cnco4)cc3)C3CC3)CC2)n1 [Example 46, N-Cyclopropyl-N-{1-[3-(1-hydroxy-1-methyl-ethyl)-[1,2,4]oxadiazol-5-yl]-piperidin-4-yl}-4-oxazol-5-yl-benzamide]	731
O=C(c1ccc(-c2cnco2)cc1)N(C1CC1)C1CCN(c2noc(-c3ccccc3)n2)CC1 [Example 47, N-Cyclopropyl-4-oxazol-5-yl-N-[1-(5-phenyl-[1,2,4]oxadiazol-3-yl)-piperidin-4-yl]-benzamide]	37
CC(C)c1nc(N2CCC(N(C(=O)c3ccc(-c4cnco4)cc3)C3CC3)CC2)no1 [Example 49, N-Cyclopropyl-N-[1-(5-isopropyl-[1,2,4]oxadiazol-3-yl)-piperidin-4-yl]-4-oxazol-5-yl-benzamide]	14
O=C(c1ccc(-c2cnco2)cc1)N(C1CC1)C1CCN(c2noc(-c3cnccn3)n2)CC1 [Example 50, N-Cyclopropyl-4-oxazol-5-yl-N-[1-(5-pyrazin-2-yl-[1,2,4]oxadiazol-3-yl)-piperidin-4-yl]-benzamide]	277
O=C(c1ccc(-c2cnco2)cc1)N(C1CC1)C1CCN(c2noc(C3CCC3)n2)CC1 [Example 52, N-[1-(5-Cyclobutyl-[1,2,4]oxadiazol-3-yl)-piperidin-4-yl]-N-cyclopropyl-4-oxazol-5-yl-benzamide]	17
CCc1cnc(N2CCC(N(C(=O)c3ccc(-c4cnco4)cc3)C3CC3)C(C)C2)nc1 (stereo not drawn) [Example 53, N-Cyclopropyl-N-[1-(5-ethyl-pyrimidin-2-yl)-3-methyl-piperidin-4-yl]-4-oxazol-5-yl-benzamide]	99
CC1CN(c2nc(-c3ccccc3)no2)CCC1N(C(=O)c1ccc(-c2cnco2)cc1)C1CC1 (stereo not drawn) [Example 54, N-Cyclopropyl-N-[3-methyl-1-(3-phenyl-[1,2,4]oxadiazol-5-yl)-piperidin-4-yl]-4-oxazol-5-yl-benzamide]	43
C=CCCc1noc(N2CCC(N(C(=O)c3ccc(-c4cnco4)cc3)C3CC3)CC2)n1 [Example 57, N-[1-(3-But-3-enyl-[1,2,4]oxadiazol-5-yl)-piperidin-4-yl]-N-cyclopropyl-4-oxazol-5-yl-benzamide]	22
CC(C)(CO)c1noc(N2CCC(N(C(=O)c3ccc(-c4cnco4)cc3)C3CC3)CC2)n1 [Example 58, N-Cyclopropyl-N-{1-[3-(2-hydroxy-1,1-dimethyl-ethyl)-[1,2,4]oxadiazol-5-yl]-piperidin-4-yl}-4-oxazol-5-yl-benzamide]	629
O=C(c1ccc(-c2cnco2)cc1)N(C1CC1)C1CCN(c2nc(CCC(F)(F)F)no2)CC1 [Example 60, N-Cyclopropyl-4-oxazol-5-yl-N-{1-[3-(3,3,3-trifluoro-propyl)-[1,2,4]oxadiazol-5-yl]-piperidin-4-yl}-benzamide]	50

Now from value to molecule:

EC50 [nM]	SMILES
85	Cc1ccc(N2CCC(N(C(=O)c3ccc(-c4cnco4)cc3)C3CC3)CC2)nc1 [Example 34, N-Cyclopropyl-N-[1-(5-methyl-pyridin-2-yl)-piperidin-4-yl]-4-oxazol-5-yl-benzamide]
204	CCc1noc(N2CCC(N(C(=O)c3ccc(-c4ccc(C(N)=O)cc4)cc3)C3CC3)CC2)n1 [Example 38, Biphenyl-4,4′-dicarboxylic acid 4-amide 4′-{cyclopropyl-[1-(3-ethyl-[1,2,4]oxadiazol-5-yl)-piperidin-4-yl]-amide}]
31	COc1ccc(-c2noc(N3CCC(N(C(=O)c4ccc(-c5cnco5)cc4)C4CC4)CC3)n2)cc1 [Example 44, N-Cyclopropyl-N-{1-[3-(4-methoxy-phenyl)-[1,2,4]oxadiazol-5-yl]-piperidin-4-yl}-4-oxazol-5-yl-benzamide]
47	CCc1nc(N2CCC(N(C(=O)c3ccc(-c4cnco4)cc3)C3CC3)CC2)no1 [Example 48, N-Cyclopropyl-N-[1-(5-ethyl-[1,2,4]oxadiazol-3-yl)-piperidin-4-yl]-4-oxazol-5-yl-benzamide]
56	O=C(c1ccc(-c2cnco2)cc1)N(C1CC1)C1CCN(c2noc(C3CC3)n2)CC1 [Example 51, N-Cyclopropyl-N-[1-(5-cyclopropyl-[1,2,4]oxadiazol-3-yl)-piperidin-4-yl]-4-oxazol-5-yl-benzamide]
1150	O=C(c1ccc(-c2cnco2)cc1)N(C1CC1)C1CCN(c2nc(CC3CCOCC3)no2)CC1 [Example 55, N-Cyclopropyl-4-oxazol-5-yl-N-{1-[3-(tetrahydro-pyran-4-ylmethyl)-[1,2,4]oxadiazol-5-yl]-piperidin-4-yl}-benzamide]
159	O=C(c1ccc(-c2cnco2)cc1)N(C1CC1)C1CCN(c2nc(C3CCOCC3)no2)CC1 [Example 56, N-Cyclopropyl-4-oxazol-5-yl-N-{1-[3-(tetrahydro-pyran-4-yl)-[1,2,4]oxadiazol-5-yl]-piperidin-4-yl}-benzamide]
23	CCCc1nc(N2CCC(N(C(=O)c3ccc(-c4cnco4)cc3)C3CC3)CC2)no1 [Example 59, N-Cyclopropyl-4-oxazol-5-yl-N-[1-(5-propyl-[1,2,4]oxadiazol-3-yl)-piperidin-4-yl]-benzamide]
52	Cc1cnc(N2CCC(N(C(=O)c3ccc(-c4cnco4)cc3)C3CC3)CC2)cn1 [Example 61, N-Cyclopropyl-N-[1-(5-methyl-pyrazin-2-yl)-piperidin-4-yl]-4-oxazol-5-yl-benzamide]
